Experimental data as given in patent US20140120060A1, “TREATMENT OF RHEUMATOID ARTHRITIS AND ASTHMA USING PI3 KINASE INHIBITORS” (INFINITY PHARMACEUTICALS, INC., priority 2012, published 2014).
In brackets after ≈: the same amount, converted by molar mass. Where two headings read alike, the source gives them in different places.

Key:
PBMCs = assay: R848 induced cytokine production in PBMCs; format: cell-based, human
Protocol: These experiments were conducted using PBMCs.

[1] = tested on: ovalbumin-induced lung inflammation; assay: Ovalbumin-induced murine model of asthma
PG-PS model of arthritis = assay: Rat mono-articular PG-PS model; format: in vivo
Protocol: Animals are initially randomized into groups based on body weight but any with no ankle swelling following priming are eliminated from the groups to be reactivated. 10/group are retained into the primary treatment groups. The remaining animals are the baseline controls (Group 1).
Rats that have ankle inflammation are allowed to recover for two weeks, and then the swelling is reactivated (day 0) by a tail vein injection of 0.5 ml of 0.4 mg/ml PG-PS. Treatment with the test compounds is given QD the day prior to reactivation on day 0 and then daily.
Animals have caliper measures and paw volumes taken of ankles on day −3 (prior to reactivation on day 0 in the AM) and then on days 1, 2, 3, 4 (2 hrs post-dose) to determine if any anti-inflammatory effects are present in treated rats.
Scoring of Joints: PGPS ankles or knees are given scores of 0-5 for inflammation and bone resorption according to the following criteria: […]

[2] = Plasma protein binding, human plasma; format: in vitro ADME
Description: […]. […] […].

[3] = Pharmacokinetics in cynomolgus monkeys; format: in vivo, monkey
Human T-cell = Human T-cell proliferation; format: cell-based
DTH ear swelling = assay: Murine model of delayed type hypersensitivity (DNFB); format: in vivo
Protocol: The animals were subsequently challenged with DNFB on the pinna of the ear on day 5 to initiate an inflammatory reaction that was measured 24 hours later.

Human B-cell = Human B-cell proliferation; format: cell-based
[4] = Clinical study in healthy adult subjects: safety
[5] = Clinical study in healthy adult subjects: pharmacokinetics; format: in vivo, human; settings: for half-life / AUC(0-t) / AUC(0-inf) / Cmax / Vd/F: human, plasma; for Vd/F: read-out: Vz/F
[6] = tested on: LPS-induced pulmonary inflammation; assay: Murine model of LPS-induced lung inflammation; format: in vivo, mice; settings: 3 mg/kg PO 60 minutes prior to LPS; 6 h after challenge
Protocol: Multiple parameters of pulmonary inflammation were determined 6 h after LPS challenge. Instillation of LPS induced significant influx of leukocytes, mostly neutrophils, into the airways, as assessed by counting the number of cells in the bronchoalveolar lavage (BAL) fluid.

B cell = B cell proliferation; format: cell-based
[7] = Embryo/fetal developmental toxicity study in rats; settings: female, rat, in vivo; pregnant rats, last day of dosing, 35 mg/kg/day; read-out: mean AUC0-24 hr at the NOAEL
[8] = 13-week repeat-dose safety study in rats; settings: both sexes, in vivo, oral; rat, Day 91, combined sexes, 25 mg/kg/day; read-out: mean AUC0-24 hr at the NOAEL
Protocol: The no observed adverse effect level (NOAEL) in the 13-week rat study was 25 mg/kg/day (150 mg/m^2/day) and the NOAEL in the 13-week monkey study was 5 mg/kg/day (60 mg/m^2/day). On Day 91, the mean AUC0-24 hr values for combined sexes at the NOAELs were 14150 ng*h/mL in the rat, and 4015 ng*h/mL in the monkey.

hERG channel current = hERG channel current (Homo sapiens, UniProt Q12809); assay: In vitro hERG assay; format: cell-based
Sequence of hERG channel current (Q12809 whole entry): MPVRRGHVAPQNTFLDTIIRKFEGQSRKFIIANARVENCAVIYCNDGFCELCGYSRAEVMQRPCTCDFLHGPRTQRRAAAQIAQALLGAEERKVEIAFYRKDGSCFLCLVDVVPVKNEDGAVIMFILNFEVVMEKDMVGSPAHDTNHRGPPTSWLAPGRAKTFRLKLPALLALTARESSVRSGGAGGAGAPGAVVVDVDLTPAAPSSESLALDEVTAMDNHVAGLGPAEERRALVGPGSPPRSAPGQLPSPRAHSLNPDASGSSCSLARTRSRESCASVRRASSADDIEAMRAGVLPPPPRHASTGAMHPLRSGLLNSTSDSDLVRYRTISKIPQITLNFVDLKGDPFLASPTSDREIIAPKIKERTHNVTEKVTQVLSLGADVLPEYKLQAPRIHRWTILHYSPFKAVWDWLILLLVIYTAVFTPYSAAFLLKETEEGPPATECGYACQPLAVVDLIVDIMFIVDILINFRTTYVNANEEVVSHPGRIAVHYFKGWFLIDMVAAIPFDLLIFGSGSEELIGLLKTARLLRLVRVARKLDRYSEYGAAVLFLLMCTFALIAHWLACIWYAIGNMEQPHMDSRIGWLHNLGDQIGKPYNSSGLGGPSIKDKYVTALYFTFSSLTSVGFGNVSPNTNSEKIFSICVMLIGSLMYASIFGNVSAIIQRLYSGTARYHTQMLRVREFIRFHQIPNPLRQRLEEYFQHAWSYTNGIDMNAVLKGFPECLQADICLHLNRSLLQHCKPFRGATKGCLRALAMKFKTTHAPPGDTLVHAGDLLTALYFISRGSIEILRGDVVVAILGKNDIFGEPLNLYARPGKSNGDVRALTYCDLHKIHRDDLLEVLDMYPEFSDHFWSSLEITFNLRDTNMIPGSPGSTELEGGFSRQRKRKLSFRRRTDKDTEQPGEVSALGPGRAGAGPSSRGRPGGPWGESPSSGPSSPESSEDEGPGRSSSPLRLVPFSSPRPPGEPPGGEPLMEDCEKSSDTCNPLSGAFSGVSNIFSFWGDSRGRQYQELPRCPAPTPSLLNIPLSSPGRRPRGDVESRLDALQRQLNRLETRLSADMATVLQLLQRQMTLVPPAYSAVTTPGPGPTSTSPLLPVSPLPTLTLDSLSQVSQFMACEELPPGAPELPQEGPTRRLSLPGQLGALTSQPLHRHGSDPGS

Caco-2 cell monolayers = assay: Membrane permeability in Caco-2 cell monolayers; format: in vitro ADME, human
[9] = Embryo/fetal developmental toxicity study in rabbits; settings: female, rabbit, in vivo; pregnant rabbits, last day of dosing, 75 mg/kg/day; read-out: mean AUC0-24 hr at the NOAEL
[10] = monkey, in vivo, cynomolgus monkeys, IV 1 mg/kg
[11] = monkey, in vivo, cynomolgus monkeys, PO 5 mg/kg suspension
[12] = DDI portion, 10 mg with 200 mg q12h ketoconazole
[13] = single oral dose 1 mg, mean (%CV)
[14] = single oral dose 2 mg, mean (%CV)
[15] = single oral dose 5 mg, mean (%CV)
[16] = single oral dose 10 mg, mean (%CV)
[17] = single oral dose 20 mg, mean (%CV)
[18] = single oral dose 30 mg, mean (%CV)

C[C@H](Nc1ncnc2[nH]cnc12)c1cc2cccc(Cl)c2c(=O)n1-c1ccccc1 [Compound 292]
R848 induced IFN-α (PBMCs): did not detectably affect | R848 induced IL-1 (PBMCs): slightly inhibited | R848 induced IL-6 (PBMCs): did not detectably affect | R848 induced IL-8 (PBMCs): did not detectably affect | R848 induced TNF-α (PBMCs): did not detectably affect | leukocyte migration into the bronchoalveolar space ([1]; FIG. 15): inhibited | eosinophil influx into the airway space (BAL fluid) ([1]; all doses tested, 0.03 to 10 mg/kg PO): significantly blocked | lymphocyte and monocyte accumulation in BAL fluid ([1]; ovalbumin induced): reduced | inflammation when reactivated with PG-PS (PG-PS model of arthritis; FIG. 14A): dose-dependently controlled inflammation | joint pathology in PG-PS model (PG-PS model of arthritis; FIG. 14B): dose-dependently improved joint pathology | protein bound in human plasma [2]: 95% | protein bound in human plasma ([2]; 100 μM (41700 ng/mL)): 85.9% | Foral ([3]; cynomolgus monkeys, PO 5 mg/kg suspension): 40% | AUC(0-inf) [3, 10]: 2380 ng·h/mL | AUC(0-t) [3, 10]: 2360 ng·h/mL | Tmax [3, 10]: 0.083 h | clearance [3, 10]: 7.17 mL/min/kg | half-life ([3]; monkey, in vivo, cynomolgus monkeys, IV 1 mg/kg, read-out: T1/2 (converted)): 5 h | Vd ([3]; monkey, in vivo, cynomolgus monkeys, IV 1 mg/kg, read-out: Vss): 1.27 L/kg | AUC(0-inf) [3, 11]: 4680 ng·h/mL | AUC(0-t) [3, 11]: 4600 ng·h/mL | Cmax [3, 11]: 1330 ng/mL | Tmax [3, 11]: 1.5 h | half-life ([3]; monkey, in vivo, cynomolgus monkeys, PO 5 mg/kg suspension, read-out: T1/2 (converted)): 5.4 h | half-life ([3]; monkey, in vivo, monkeys, read-out: half-life (converted)): 5 h | EC50 (Human T-cell): 9.5 nM | ear swelling (DTH ear swelling; 0.3, 1, 3 and 10 mg/kg PO): Dose dependent inhibition | inhibition of ear swelling vs vehicle control (DTH ear swelling; highest dose group (10 mg/kg PO, 30 minutes prior to DNFB challenge)): approximately 50% | EC50 (Human B-cell): 0.5 nM | deaths and serious adverse events (SAEs) ([4]; all doses evaluated): no deaths and no serious adverse events | safety laboratory or electrocardiogram (ECG) abnormalities ([4]; any portion of the study): No clinically significant safety laboratory or electrocardiogram (ECG) abnormalities | QTcF at any assessment ([4]; serial ECGs): ≤ 500 ms | largest change from baseline in QTcF ([4]; serial ECGs): 37 ms | tolerability ([4]; single doses up to 30 mg and up to 10 mg total daily dose for 14 days): well tolerated | excretion of unchanged compound in urine [5]: < 2 % of the administered dose | time to peak plasma concentrations [5]: 0.5 to 1 h | accumulation ([5]; 14 days of Q12 h oral administration): less than 2 fold | increase of AUC0-inf in the presence of ketoconazole [5, 12]: ~295% | increase of AUC0-last in the presence of ketoconazole [5, 12]: ~285% | increase of Cmax in the presence of ketoconazole [5, 12]: approximately 66% | decrease of Cmax in the presence of a high fat meal ([5]; food effect portion, 25 mg): approximately 10% | half-life ([5]; oral, following a single dose, read-out: half-life): 3.5 to 9.5 h | AUC(0-t) ([5]; po, 1 mg, single oral dose 1 mg, mean (%CV), read-out: AUC(0-24)): 149 ng·h/mL | AUC(0-t) ([5]; po, 1 mg, single oral dose 1 mg, mean (%CV), read-out: AUC(0-t)): 148 ng·h/mL | half-life ([5]; po, 1 mg, single oral dose 1 mg, mean (%CV), read-out: T1/2 (converted)): 3.52 h | AUC(0-t) ([5]; po, 2 mg, single oral dose 2 mg, mean (%CV), read-out: AUC(0-24)): 289 ng·h/mL | AUC(0-t) ([5]; po, 2 mg, single oral dose 2 mg, mean (%CV), read-out: AUC(0-t)): 291 ng·h/mL | half-life ([5]; po, 2 mg, single oral dose 2 mg, mean (%CV), read-out: T1/2 (converted)): 5.43 h | AUC(0-t) ([5]; po, 5 mg, single oral dose 5 mg, mean (%CV), read-out: AUC(0-24)): 733 ng·h/mL | AUC(0-t) ([5]; po, 5 mg, single oral dose 5 mg, mean (%CV), read-out: AUC(0-t)): 735 ng·h/mL | half-life ([5]; po, 5 mg, single oral dose 5 mg, mean (%CV), read-out: T1/2 (converted)): 5.43 h | AUC(0-t) ([5]; po, 10 mg, single oral dose 10 mg, mean (%CV), read-out: AUC(0-24)): 891 ng·h/mL | AUC(0-t) ([5]; po, 10 mg, single oral dose 10 mg, mean (%CV), read-out: AUC(0-t)): 905 ng·h/mL | half-life ([5]; po, 10 mg, single oral dose 10 mg, mean (%CV), read-out: T1/2 (converted)): 9.47 h | AUC(0-t) ([5]; po, 20 mg, single oral dose 20 mg, mean (%CV), read-out: AUC(0-24)): 2190 ng·h/mL | AUC(0-t) ([5]; po, 20 mg, single oral dose 20 mg, mean (%CV), read-out: AUC(0-t)): 2240 ng·h/mL | half-life ([5]; po, 20 mg, single oral dose 20 mg, mean (%CV), read-out: T1/2 (converted)): 7.79 h | AUC(0-t) ([5]; po, 30 mg, single oral dose 30 mg, mean (%CV), read-out: AUC(0-24)): 3260 ng·h/mL | AUC(0-t) ([5]; po, 30 mg, single oral dose 30 mg, mean (%CV), read-out: AUC(0-t)): 3380 ng·h/mL | half-life ([5]; po, 30 mg, single oral dose 30 mg, mean (%CV), read-out: T1/2 (converted)): 8.12 h | AUC(0-inf) [5, 13]: 151 ng·h/mL | Cmax [5, 13]: 43.4 ng/mL | Vd/F [5, 13]: 38.8 L | AUC(0-inf) [5, 14]: 296 ng·h/mL | Cmax [5, 14]: 78.8 ng/mL | Vd/F [5, 14]: 57.9 L | AUC(0-inf) [5, 15]: 743 ng·h/mL | Cmax [5, 15]: 246 ng/mL | Vd/F [5, 15]: 53 L | AUC(0-inf) [5, 16]: 914 ng·h/mL | Cmax [5, 16]: 454 ng/mL | Vd/F [5, 16]: 147 L | AUC(0-inf) [5, 17]: 2250 ng·h/mL | Cmax [5, 17]: 997 ng/mL | Vd/F [5, 17]: 99.1 L | AUC(0-inf) [5, 18]: 3400 ng·h/mL | Cmax [5, 18]: 1140 ng/mL | Vd/F [5, 18]: 113 L | LPS-induced total leukocyte and neutrophil influx in BAL fluid [6]: inhibited | EC50 (B cell): < 100 nM | AUC(0-t) [7]: 62200 ng·h/mL | AUC(0-t) [8]: 14200 ng·h/mL | Hill coefficient (hERG) (hERG channel current): 1.3 | IC50 on hERG potassium current (hERG channel current): 20.8 µg/mL (≈ 49.9 µM) | cell membrane permeability (Caco-2 cell monolayers): moderate | AUC(0-t) [9]: 66200 ng·h/mL
